The record followed here is patent US8895717B2, “Delivery of siRNA by neutral lipid compositions” (The Board of Regents of the University of Texas System, priority 2005, dated 2014).

d = 2'-deoxy (DNA); r = 2'-OH (RNA)

Series [1] has as its system HeyA8 cells. The series is described as follows: Chronic restraint stress, HeyA8 orthotopic tumor growth. It is filed as in vivo, nude mice. To be noted: siRNA in DOPC three times per week. From the text: Mice habituated to vivarium conditions for 1 week before the initiation of stress procedures. A restraint-stress procedure was used based on previous studies (Sheridan et al., 1991), substituting a novel Mouse Restraint System (FIG. 15A) for conical centrifuge tubes. In this system, up to 10 mice are placed in individual slots, and each slot can be adjusted to restrain the animal for a desired length of time. In the present study, restraint stress began between 8 a.m. and 10 a.m., and lasted for 2-6 hours for up to 21 days. […] Immunohistochemistry and H&E staining procedures were carried out on formalin-fixed paraffin-embedded tumors. […] Pumps were inserted on the nape of the neck 7 days prior to initiation of restraint stress for 2 hours daily. Mice were anesthetized with inhaled methoxyflurane (Medical Developments Australia Pty. Ltd, Melbourne, Australia), and implanted with Alzet pumps containing PBS or S-propranolol hydrochloride (Sigma Co., St. Louis, Mo.) diluted in PBS at a dose of 2 mg/kg/day, which allows for chronic continuous receptor blockade, for 28 days (Aarons and Molinoff, 1982; Exton et al., 2002).

Series [2] deals with Murine FAK. The series is described as follows: FAK siRNA treatment of murine endothelial cells. The format is cell-based, mouse. To be noted: murine endothelial cells from the ovary of ImmortoMice. The text has this: To determine potential mechanisms underlying the efficacy of anti-FAK based therapy, its effects on several biological endpoints were examined, including angiogenesis (MVD), proliferation (PCNA), and apoptosis (TUNEL). Due to growing evidence related to FAK and tumor angiogenesis (Kornberg et al., 2004; Mitra et al., 2005). The inventors evaluated vessel density (FIG. 14B) in the tumors harvested from the studies described above. […] To determine if FAK siRNA mediated in vivo effects on endothelial cells were direct, the inventors treated murine endothelial cells isolated from the ovary of ImmortoMice (H-2k(b)-ts A58) (Langley et al., 2003) with FAK siRNA. Murine FAK levels were not altered by the FAK siRNA used for the in vivo studies (data not shown).

Series [3] relates to HeyA8-MDR cells. As to the kind of experiment: Cytotoxicity assay (MTT), HeyA8-MDR. The format is cell-based, human. The conditions noted are these: HeyA8-MDR; siRNA 48 hours before docetaxel. On the procedure: The medium was exchanged after 48 hours with increasing concentrations of docetaxel (obtained from Aventis Pharma, Bridgewater, N.J.) dissolved in ethanol (final concentration range, 0.1-10,000 nmol/L prepared in medium) or cisplatin (purchased from LKT Laboratories, Inc., St. Paul, Minn.) dissolved in water. After a 96-hour incubation, 50 μL of 0.15% 3-(4,5-dimethylthiazol-2-yl)-2,5-diphenyltetrazolium bromide was added to each well and incubated for 2 hours. The supernatant was removed, and cells were dissolved in 100 μL DMSO. The absorbance at 570 nm was recorded using a FALCON microplate reader (Becton Dickinson Labware, Bedford, Mass.), and cell survival expressed as a percent increase or decrease above control conditions, after subtracting blank A570 readings. The IC50 concentration was determined by finding the A570 reading midpoint between maximal and minimal readings and finding the chemotherapy concentration that intersects the growth curve at that A570 reading.

Consider “control siRNA: sense r(UUUUCCGAACGUGUCACGU)dTT, antisense r(ACGUGACACGUUCGGAGAA)dTT, no homology with human mRNA; in vivo in DOPC (sense UUUUCCGAACGUGUCACGUTT; antisense ACGUGACACGUUCGGAGAATT; sugars from the 5' end r19 d2, backbone not given here)”, for which the “effect on stress induced increase in tumor weight, nodules and metastasis” value in series [1] is “failed to block stress-induced enhancement of tumor weight and nodules”. Turning to “FAK siRNA: sense r(CCACCUGGGCCAGUAUUAU)d(TT), antisense r(AUAAUACUGGCCCAGGUGG)d(TT); for in vivo delivery incorporated into DOPC (sense CCACCUGGGCCAGUAUUAUTT; antisense AUAAUACUGGCCCAGGUGGTT; sugars from the 5' end r19 d2, backbone not given here)”, in series [2], the “Murine FAK levels” value is “not altered”. The “fold increase in sensitivity to docetaxel” value in series [3] came to 5.5 fold.
